# Assay results as given in US20050272606A1, “Plant life control composition” (priority 1999, published 2005).
# Legend:
# Test in all cases: POST trolley belt sprayer test (Example 3)
# Conditions in all cases: 600 g/ha, 14 DAT
# VEL (Velvetleaf) = type: in vivo, Abutilon theophrasti
# Description: (§1) All POST crops and weeds plants were grown into separate square pots which measured 10×10 cm. The soil used was amended with Redi-Eartho Plug and Seedling Mix in a one to one ratio. Ten to twenty seeds per small seeded species were planted per pot. Five to ten seeds were planted with large seeded species. Seeds were sown 0.5 inches deep. Generally, POST plants were 7 to 21 days old (from planting) when sprayed. Grasses were in the 2-4 leaf stage and broadleaf weeds were in the 1-2 true leaf stage.
# (§2) The spray volume was 50 gallons per acre (468 I/Ha). Rates of application (grams per hectare) varied depending on the concentration of chemical within each individual spray solution. Technical samples were dissolved in acetone. Formulations are suspended in water. All applications were made using a trolley belt sprayer. The test plants were placed on the belt inside the spray hood. Then the spray nozzle which is attached to the trolley, moves mechanically over the top of the plants. The spray nozzle delivers a flat fan spray pattern and is a typical nozzle used in herbicide field applications. The belt carries the plants out of the spray hood and into a drying chamber.
# (§3) After spray application, the test plants were placed in a vented cabinet until dry, then placed in the greenhouse. […] The trolley sprayer settings were as follows (50 (GPA) Gallons Per Acre or (468 L/Ha): […]
# MG (Morningglory) = type: in vivo, Ipomoea hederacea
# Description: as §1, §2, §3
# RYE (Ryegrass) = type: in vivo, Lolium multiflorum
# Description: as §1, §2, §3
# PIG (Pigweed) = type: in vivo, Amaranthus retroflexus
# Description: as §1, §2, §3
# NS (Nightshade) = type: in vivo, Solanum nigrum
# Description: as §1, §2, §3
# BID (Bidens) = type: in vivo, Bidens pilosa
# Description: as §1, §2, §3
# [1] = tested on: Grassy Weeds (Avg Monocot); type: in vivo
# Description: as §1, §2, §3
# [2] = tested on: Broadleaf Weeds (Avg Dicot); type: in vivo
# Description: as §1, §2, §3
# CN (Corn) = type: in vivo, Zea mays
# Description: as §1, §2, §3
# SOY (Soybean) = type: in vivo, Glycine max
# Description: as §1, §2, §3
# WHT (Wheat) = type: in vivo, Triticum spp.
# Description: as §1, §2, §3
# SMT (Smartweed) = type: in vivo, Polygonum lapathifolium
# Description: as §1, §2, §3
# NUT (Nutsedge) = type: in vivo, Cyperus esculentus
# Description: as §1, §2, §3
# FOX (Foxtail) = type: in vivo, Setaria viridis
# Description: as §1, §2, §3
# RI (Rice) = type: in vivo, Oryza sativa
# Description: as §1, §2, §3
# SPR (Sprangletop) = type: in vivo, Leptochloa dubia
# Description: as §1, §2, §3
# CKL (Cocklebur) = type: in vivo, Xanthium pensylvanicum
# Description: as §1, §2, §3
# BP (Blue panicum) = type: in vivo, Panicum antidotale
# Description: as §1, §2, §3
# COT (Cotton) = type: in vivo, Gossypium hirsutum
# Description: as §1, §2, §3
# TEA (Teaweed) = type: in vivo, Sida spinosa
# Description: as §1, §2, §3
# SIG (Signalgrass) = type: in vivo, Brachiaria platyphylla
# Description: as §1, §2, §3
# BYG (Barnyardgrass) = type: in vivo, Echinochloa crus-galli
# Description: as §1, §2, §3
# CRB (Crabgrass) = type: in vivo, Digitaria sanguinalis
# Description: as §1, §2, §3
smiles,measurement,setting,value
C[n+]1ccc(-c2cc[n+](C)cc2)cc1 [Paraquat],% POST Control of Broadleaf Weeds,VEL (Velvetleaf),100%
same,% POST Control of Broadleaf Weeds,MG (Morningglory),100%
same,% POST Control of Grassy Weeds,RYE (Ryegrass),100%
same,% POST Control of Broadleaf Weeds,PIG (Pigweed),100%
same,% POST Control of Broadleaf Weeds,NS (Nightshade),100%
same,% POST Control of Broadleaf Weeds,BID (Bidens),100%
same,"% POST Control of Grassy Weeds, Avg Monocot",[1],93%
same,"% POST Control of Broadleaf Weeds, Avg Dicot",[2],98%
same,% Crop Injury,CN (Corn),85%
same,% Crop Injury,SOY (Soybean),100%
same,% Crop Injury,WHT (Wheat),100%
same,% POST Control of Broadleaf Weeds,SMT (Smartweed),100%
same,% POST Control of Grassy Weeds,NUT (Nutsedge),85%
same,% POST Control of Grassy Weeds,FOX (Foxtail),90%
same,% Crop Injury,RI (Rice),100%
same,% POST Control of Grassy Weeds,SPR (Sprangletop),100%
same,% POST Control of Broadleaf Weeds,CKL (Cocklebur),100%
same,% POST Control of Grassy Weeds,BP (Blue panicum),100%
same,% Crop Injury,COT (Cotton),100%
same,% POST Control of Broadleaf Weeds,TEA (Teaweed),85%
same,% POST Control of Grassy Weeds,SIG (Signalgrass),85%
same,% POST Control of Grassy Weeds,BYG (Barnyardgrass),95%
same,% POST Control of Grassy Weeds,CRB (Crabgrass),90%
